Experimental data: US12698308B2, “Peptide for preventing or treating inflammatory diseases” (AJOU UNIVERSITY INDUSTRY-ACADEMIC COOPERATION FOUNDATION, priority 2021, dated 2026)
Ends that are not written are not given here.

Legend:
[1] = system: mice with Behçet's disease; experiment: Skin symptom improvement in mice with Behçet's disease; assay type: in vivo; settings: external agent on skin, 1 μg/mouse once a day for 10 days; FIG. 6
Protocol: After applying the peptide-including external agent used in the Experimental Example 5 to the skin of mice with Behçet's disease, changes in the symptom improvement were checked. Administration was performed by 1 μg/mouse once a day for 10 days.

TNF-alpha = experiment: Genetic analysis via real-time PCR in vitro, cytokine expression in cultured cells; assay type: cell-based, mouse; settings: for cytokine TNF-alpha in the spleen: peptide treatment 24 hours, FIG. 2C; for cytokine TNF-alpha in the lymph node: FIG. 2G
Protocol: (§1) While culturing spleen cells isolated from the spleen of 4-week-old male ICR mice weighing 25 g, various types of peptides having lipidized at terminus of the peptides were treated to cells, and changes in cytokine expression were observed via real-time PCR. Spleen cell isolation was performed by cutting out the spleen from mice, placing the spleen on a cell filter, crushing the spleen on a Petri dish through the cell filter using the plunger tip of a syringe, rinsing the cell filter with PBS, and transferring the suspended cells to 15 mL conical tube. Cells were centrifuged at 4° C. and 800×g for 5 minutes. Subsequently, the supernatant was discarded, and the pellets were resuspended in 1 mL of ACK buffer (ammonium-chloride-potassium lysing buffer). After leaving at room temperature for 5 to 10 minutes, […] of PBS at 4° C. was added, and the cells were centrifuged again at 4° C. and 800×g for 5 minutes. The supernatant was discarded again, the pellets were resuspended in 5 mL of culture, and 2×10^6 cells/mL were cultured in DMEM medium. Before culturing spleen cells in an incubator, 1 μg/mL anti-CD3 Ab was coated on the bottom of a culture container, after 24 hours, culture was performed for 3 days in DMEM medium including 1 μg of anti-CD28 Ab, 20 ng of IL-6, 5 ng of TGF beta, and 20 ng of IL-23 per 1 mL of culture medium, and then the peptides were treated, followed by culture for another 24 hours.

IL-17 = experiment: as above; assay type: cell-based, mouse; settings: for cytokine IL-17 in the lymph node: FIG. 2E; for cytokine IL-17 in the spleen: peptide treatment 24 hours, FIG. 2A
Protocol: as §1

ROR-gammaT gene = experiment: Genetic analysis via real-time PCR in vitro, gene expression in cultured cells; assay type: cell-based, mouse; settings: for expression of ROR-gammaT gene in the lymph node: FIG. 2F
Protocol: as §1

[2] = system: arthritis model mice (collagen induced arthritis, CIA); experiment: Ankle thickness in collagen induced arthritis (CIA) mice; assay type: in vivo, mouse; settings: at day 30, compared to arthritis mice (control) without receiving peptides; FIGS. 9A-9B
Protocol: (§2) Collagen was mixed with an adjuvant and injected subcutaneously into the tail twice (Day 1 and Day 11) to prepare arthritis model mice. The adjuvant is a mixture of 17 μL of high-concentration paraffin oil (Fisher, cat. no. 0122-1) and 68 μg (17 μL) of complete Freund adjuvant (CFA; Sigma-Aldrich, cat. no. F5881), which was used by mixing with 34 μg (17 μL) of bovine type II collagen (MD bioproducts cat. no. 804001-Sol). From the day after the second collagen injection (day 12), 1 μg (100 μL) of peptide was administered intramuscularly to the hind legs 10 times (once every 2 days), and mouse peripheral blood cells were isolated to analyze the frequency of Ly6G+ cells via flow cytometry. Peripheral blood cells were isolated from mouse hearts, red blood cells were lysed in ACK buffer (ammonium-chloride-potassium lysing buffer), and then centrifugation was performed to collect only blood cells to be used for antibody staining for the analysis with the flow cytometer. Using Ly6G+ as a neutrophil marker, whether the peptide inhibits a frequency of inflammation-induced neutrophil cells in an arthritis model was determined. Methotrexate (MTX) was used as a control drug.
Since the thickness of the ankle increases due to edema caused by arthritis, the ankle thickness was measured to determine whether peptide administration may relieve edema caused by inflammation. The ankle thickness was measured with a digital caliper at the thickest part of the ankle.

IL-1 beta = experiment: Genetic analysis via real-time PCR in vitro, cytokine expression in cultured cells; assay type: cell-based, mouse; settings: for cytokine IL-1 beta in the lymph node: FIG. 2H; for cytokine IL-1 beta in the spleen: peptide treatment 24 hours, FIG. 2D
Ly6G+ (neutrophil) cells = experiment: Frequency of Ly6G+ (neutrophil) cells in peripheral blood of collagen induced arthritis (CIA) mice; assay type: in vivo, mouse; settings: 1 μg intramuscularly 10 times (once every 2 days), FIG. 8
Protocol: as §2

Substance: GCAATCPEAKPREIVECCSTDKCNH (SEQ ID NO: 7) (E4) [Peptide E4]
- skin symptom improvement [1]: almost disappeared after 10 days, and the wound healed

Substance: LICPEKYCNKVHTCRNGENICF (SEQ ID NO: 4) (E1) [Peptide E1]
- cytokine TNF-alpha in the spleen (TNF-alpha): reduced
- cytokine IL-17 in the lymph node (IL-17): reduced
- cytokine IL-17 in the spleen (IL-17): reduced
- expression of ROR-gammaT gene in the lymph node (ROR-gammaT gene): reduced
- thickness of the ankle [2]: significantly reduced
- cytokine IL-1 beta in the lymph node (IL-1 beta): reduced
- cytokine IL-1 beta in the spleen (IL-1 beta): reduced
- skin symptom improvement [1]: the symptom almost disappeared after 10 days
- frequency of Ly6G+ cells (Ly6G+ (neutrophil) cells): decreased to a statistically significant level

Substance: LTCLICPEKYCNKVHTCRNGENICF (SEQ ID NO: 5) (E2) [Peptide E2]
- cytokine TNF-alpha in the lymph node (TNF-alpha): reduced
- cytokine TNF-alpha in the spleen (TNF-alpha): reduced
- cytokine IL-17 in the lymph node (IL-17): reduced
- cytokine IL-17 in the spleen (IL-17): reduced
- expression of ROR-gammaT gene in the lymph node (ROR-gammaT gene): reduced
- thickness of the ankle [2]: significantly reduced
- cytokine IL-1 beta in the spleen (IL-1 beta): reduced
- skin symptom improvement [1]: improved the skin erythema

Substance: P1M: P1 peptide (SEQ ID NO: 1) with myristoylation, component of P124-M (LICPEKYCNKVHT; cysteine pairing not given here; also: myristoylation) [Peptide P1M]
- cytokine IL-1 beta in the spleen (IL-1 beta): reduced

Substance: P2M: P2 peptide (SEQ ID NO: 2) with myristoylation, component of P124-M (YCNKVHTCRNG; cysteine pairing not given here; also: myristoylation) [Peptide P2M]
- cytokine TNF-alpha in the spleen (TNF-alpha): reduced
- cytokine IL-17 in the lymph node (IL-17): reduced
- cytokine IL-17 in the spleen (IL-17): reduced

Substance: P4M: P4 peptide (SEQ ID NO: 3) with myristoylation, component of P124-M (HTCRNGENICF; cysteine pairing not given here; also: myristoylation) [Peptide P4M]
- cytokine TNF-alpha in the spleen (TNF-alpha): reduced
- cytokine IL-17 in the lymph node (IL-17): reduced
- cytokine IL-1 beta in the spleen (IL-1 beta): reduced

Substance: TCPEAKPREIVECCSTDKCNH (SEQ ID NO: 6) (E3) [Peptide E3]
- cytokine TNF-alpha in the lymph node (TNF-alpha): reduced
- cytokine TNF-alpha in the spleen (TNF-alpha): reduced
- cytokine IL-17 in the lymph node (IL-17): reduced
- cytokine IL-17 in the spleen (IL-17): reduced
- expression of ROR-gammaT gene in the lymph node (ROR-gammaT gene): reduced
- expression of ROR-gammaT gene in the spleen (ROR-gammaT gene; spleen, peptide treatment 24 hours, FIG. 2B): reduced
- thickness of the ankle [2]: significantly reduced
- cytokine IL-1 beta in the lymph node (IL-1 beta): reduced
- cytokine IL-1 beta in the spleen (IL-1 beta): reduced
